Experiments:
Weizen = assay: Post-emergence test (crop selectivity); type: in vivo; settings: post-emergence spray, 2000 l Wasser/ha, rated after three weeks
From the text: (§1) Lösungsmittel: 5 Gewichtsteile Aceton Emulgator: 1 Gewichtsteil Alkylarylpolyglykolether
(§2) Zur Herstellung einer zweckmäßigen Wirkstoffzubereitung vermischt man 1 Gewichtsteil Wirkstoff mit der angegebenen Menge Lösungsmittel, gibt die angegebene Menge Emulgator zu und verdünnt das Konzentrat mit Wasser auf die gewünschte Konzentration. Mit der Wirkstoffzubereitung spritzt man Testpflanzen, welche eine Höhe von 5 - 15 cm haben so, daß die jeweils gewünschten Wirkstoffmengen pro Flächeneinheit ausgebracht werden. Die Konzentration der Spritzbrühe wird so gewählt, daß in 2000 l Wasser/ha die jeweils gewünschten Wirkstoffmengen ausgebracht werden. Nach drei Wochen wird der Schädigungsgrad der Pflanzen bonitiert in % Schädigung im Vergleich zur Entwicklung der unbehandelten Kontrolle.

[1] = test system: Unkräuter, wie z. B. Datura, Galium, Polygonum, Portulak, Sinapis und Solanum; assay: Post-emergence test (herbicidal action on weeds); type: in vivo; settings: post-emergence spray on test plants 5 - 15 cm high, 2000 l Wasser/ha, rated after three weeks as % Schädigung vs untreated control; result stated in comparison with Vergleichssubstanz (A)
From the text: as §1, §2

SMILES | Selektivität in Weizen (Weizen) | Wirkung gegen Unkräuter [1]
FC(F)(F)c1ccc(Oc2ccc(Cl)c(CBr)c2)c(Cl)c1 [Beispiel 1, 2-Chlor-5-(2-Chlor-4-trifluormethyl-phenoxy)-benzylbromid] | guter Selektivität | erheblich stärkere Wirkung
CCOC(=O)C(C)(O)Cc1cc(Oc2c(Cl)cc(C(F)(F)F)cc2Cl)ccc1Cl (stereo not shown) [Beispiel 6, 1-Hydroxy-1-methyl-2-(2-chlor-5-(2,6-dichlor-4-trifluormethyl-phenoxy)-phenyl)-propionsäure-ethylester] | guter Selektivität | erheblich stärkere Wirkung

Reference: patent publication EP0338306A2, “Halogen-substituted phenoxybenzyl compounds” (BAYER AG, priority 1988, dated 1989)
